Measured values reported in patent US6001853A, “Hydroxylamine compositions for the prevention or retardation of cataracts” (priority 1998, dated 1999).
Like-named read-outs stand apart in the source and are kept apart here. One block for each molecule: values may come before it.

What was measured:
[1] = tested on: experimental cataracts; conditions: cited from earlier work
[2] = tested on: lens proteins; conditions: in vitro; cited from earlier work
[3] = tested on: cataracts in x-ray irradiated rats; conditions: cited from earlier work
[4] = tested on: rat lenses; assay: Rubidium-86 accumulation by cultured rat lenses (H2O2 stress); format: cell-based, Sprague-Dawley rat; conditions: for prevention of decrement in Rb-86 accumulation associated with H2O2 exposure: 0.25 mM H2O2, agent added at beginning of assay; for effect on Rb-86 accumulation of control lenses: added to medium of control lenses at beginning of assay, no H2O2
Method: (§1) Such assays are accepted as an indication of the in vivo effect of a drug in retarding the development of cataracts.
(§2) The techniques described in references 10 and 11 were used in this assay. Rat lenses used in these studies were obtained from Sprague-Dawley male rats. The lenses were incubated in 24-well clusters in modified TC-199 medium (prepared as described in Zigler and Hess, Exp. Eye Res. 41:67, 1985) and placed in a 37° C. incubator with a 95% air/5% CO2 humidified atmosphere. The lenses were incubated in about 2.0 ml of culture medium, which was adjusted to about 300 milliosmoles. The assays were usually of 22 hours duration, and tracer levels of ^86 Rb or tritiated choline were added at 18 hours so that the tracer was present during the last four hours of the assay.
Two potential anti-cataract agents were tested in this experiment: E-64 (a protease inhibitor) and pantetheine (a putative phase separation inhibitor) were added to the culture medium at the beginning of the assay.
(§3) The experiment was performed essentially as described for Example 2, except that TEMPOL-H was added at 3 or 4 mM or was added at 3 mM together with MPG at either 0.5 or 1 mM.

[5] = tested on: rat lenses; assay: Tritiated choline accumulation by cultured rat lenses (H2O2 stress); format: cell-based, Sprague-Dawley rat; conditions: for reduction of the H2O2-induced decrement of tritiated choline concentration: 0.25 mM H2O2, MPG 1 mM, TEMPOL-H 5 mM
Method: as §1, §2
(§4) Rat lenses were cultured as described in reference 11 and Example 1. H2 O2 was added to experimental cultures to a concentration of 0.25 mM. Carnosine at 1 mM, MPG at 1 mM, or TEMPOL-H at 5 mM was added to some of the treated lenses at the beginning of the culture assay.
as §3

[6] = Systemic/ocular delivery of MPG by osmotic pump, detection in the eye; format: in vivo, Sprague Dawley albino rats; conditions: subcutaneous, intraperitoneal and ocular routes; 2 ml of 100 mM over 7 or 14 days
Method: (§5) A 2 ml volume of 100 mM TEMPOL-H was provided in an ALZET osmotic pump, available from Alza Corporation of Palo Alto, Calif. The pump was programmed to deliver the 2 ml dose continuously (down an osmotic gradient) over a period of either 7 or 14 days.
The reducing agent MPG was also delivered to the subjects by subcutaneous, intraperitoneal and ocular routes, as described in Example 7, through an implanted osmotic pump. A 2 ml volume of 100 mM MPG was provided in the pump and delivered over a period of 7 days or 14 days.

[7] = tested on: cells; conditions: reported by Mitchell and colleagues; cited from earlier work
[8] = tested on: lens; assay: Lens penetration and redox state by EPR of lens homogenate; format: in vitro ADME, rat
Source text: TEMPOL-H is the reduced form of the nitroxide TEMPOL, which is a stable free radical detectable by electron paramagnetic resonance (EPR) spectroscopy, as in reference 12. TEMPOL-H can be readily converted to TEMPOL by oxidation with ferricyanide, and then can be quantitated by EPR spectroscopy. This provides a ready means of determining whether TEMPOL-H is present in experimental lenses and whether it is in the oxidized or reduced state. […] TEMPOL-H can in turn be oxidized to the nitroxide by dehydrogenases and activated oxygen species, such as singlet oxygen.
as §4
Following lens incubation, lenses were rinsed, then homogenized in buffer and aliquots of the homogenate analyzed by EPR. […] Only following treatment of the lens extract with ferricyanide was the nitroxide detected.

[9] = tested on: rat lenses; format: cell-based; conditions: 1.0 mM H2O2 plus 4 mM TEMPOL-H, 24 hours
Method: Lenses were cultured as in the above examples.

[10] = Systemic delivery of TEMPOL-H by osmotic pump, plasma and eye concentrations; format: in vivo, Sprague Dawley albino rats; conditions: subcutaneous osmotic pump, 2 ml of 100 mM over 7 or 14 days
Method: as §5
In the rats who received subcutaneous delivery of the hydroxylamine, plasma TEMPOL-H concentrations of 0.25 μM were observed.

Compound: CC(=O)Oc1ccccc1C(=O)O [Aspirin]
- delay of experimental cataracts [1]: shown to delay experimental cataracts

Compound: O=C(O)COc1nn(Cc2ccccc2)c2ccccc12 [Bendazac]
- protection of lens proteins [2]: found to protect lens proteins in vitro
- delay of onset of cataracts [3]: delay the onset of cataracts in x-ray irradiated rats

Compound: CC(C)CC(NC(=O)C1OC1C(=O)O)C(=O)NCCCCNC(=N)N (stereo not shown) [E-64]
- prevention of decrement in Rb-86 accumulation associated with H2O2 exposure [4]: neither prevented the decrement in accumulation
- effect on Rb-86 accumulation of control lenses [4]: small negative effect on Rb-86 accumulation

Compound: OO [H2 O2, hydrogen peroxide]
- Rb-86 accumulation (internal concentration relative to concentration in the medium) ([4]; H2O2 bolus 0.25 mM, normal control lenses more than 7-fold): 5 fold

- detection of MPG in the eye [6]: detected in the eye
Compound: CC(S)C(=O)NCC(=O)O (stereo not shown) [MPG, N-(2-mercaptopropionyl) glycine]
- reduction of the H2O2-induced decrement of tritiated choline concentration [5]: significant reduction in the decrement of tritiated choline concentration

Compound: CC1(C)CC(O)CC(C)(C)N1[O] [TEMPOL, 4-hydroxy-2,2,6,6-tetramethylpiperidin-1-yloxy]
- protection of cells from oxidative damage [7]: protects cells from oxidative damage

Compound: CC1(C)CC(O)CC(C)(C)N1O [TEMPOL-H]
- effect on Rb-86 accumulation in lenses exposed to H2O2, dose response / combination ([4]; TEMPOL-H 3 or 4 mM, or 3 mM with MPG 0.5 or 1 mM (FIG. 6)): dose response effect
- reduction of the H2O2-induced decrement of tritiated choline concentration [5]: significant reduction in the decrement of tritiated choline concentration
- effect on 3H-choline accumulation in lenses exposed to H2O2, dose response / combination ([5]; TEMPOL-H 3 or 4 mM, or 3 mM with MPG 0.5 or 1 mM (FIG. 5)): dose response effect
- penetration of the lens from the culture medium ([8]; EPR after lens incubation, TEMPOL-H 5 mM): does penetrate the lens from the culture medium
- redox state within the lens ([8]; nitroxide detected only following ferricyanide treatment of lens extract): the highly reducing environment within the lens keeps the compound in the reduced state
- inhibition of opacification of cultured lenses [9]: clearly and consistently was found to inhibit opacification of the cultured lenses
- concentration ([10]; read-out: concentration in the eye): 20 nM
- concentration ([10]; read-out: plasma TEMPOL-H concentration): 250 nM
- protection of cells from oxidative damage [7]: affords no such protection

Compound: CC(=O)Nc1ccc(O)cc1 [acetaminophen]
- delay of experimental cataracts [1]: shown to delay experimental cataracts

Compound: CC(C)Cc1ccc(C(C)C(=O)O)cc1 (stereo not shown) [ibuprofen]
- delay of experimental cataracts [1]: shown to delay experimental cataracts

Compound: CC(C)(CO)[C@@H](O)C(=O)NCCC(=O)NCCS [pantetheine]
- prevention of decrement in Rb-86 accumulation associated with H2O2 exposure [4]: neither prevented the decrement in accumulation
- effect on Rb-86 accumulation of control lenses [4]: small negative effect on Rb-86 accumulation
